Results as given in US20230050846A1, “TREATMENT OF HEPATIC AND CARDIOVASCULAR DISORDERS” (LIFESEARCH, priority 2019, published 2023).
Read-outs that look alike come from different tables or passages of the source. Peptide text beside a SMILES is read from it. * marks the point of attachment. Palmitoyl = CCCCCCCCCCCCCCCC(=O)*

Experiments:
[1] = Stability in PBS (LC-HRMS); format: physicochemical; conditions: 4° C. and 37° C., 4 weeks
Procedure: (§1) Peptide of Formula (I) or peptide of Formula (II) were prepared at a concentration of 200 μg/mL in PBS or mixed with EDTA plasma or serum from human (Etablissement Frangais du Sang, EFS) or mouse (C57BL/6J, cardiac puncture). Aliquots from PBS samples (40 μL) were incubated at 4° C. or 37° C. for 0, 1, 2 and 4 weeks. Aliquots from plasma and serum samples (50 μL) were incubated at 4° C. or 37° C. for 0, 1, 2, 4, 6, 12, 24 h.
A mixed solution of peptides of formula (I) and (II) was constituted and serially diluted in PBS to obtain seven standard solutions, ranging from 200 μg/mL to 0.2 μg/mL. In parallel, a mixed solution of labelled peptides of Formula (I) and (II) (Thermo Scientific, Biopolymers Darmstadt, Germany) was prepared in PBS at 100 μg/mL. The mixed solution of labelled peptides (25 μL) was added to 25 μL of standard solutions as well as to PBS, plasma and serum samples. Acetonitrile (150 μL) was added to each sample to precipitate plasma/serum proteins. […] Peptides were analyzed according to their major exact m/z (i 5 ppm, Table 1) and each peptide signal was normalized with that of its labelled internal standard. Peptide concentrations were calculated using calibration curves plotted from standard solutions (linear regression, 1/x weighted, origin excluded).

human F1Fo-ATPase = target: T1, human F1Fo-ATPase (Homo sapiens, UniProt P06576); assay: F1-ATPase activity assay (NADH-coupled, purified enzyme); format: biochemical; conditions: 1 μM
T1 construct: Human F1Fo-ATPase was purified from HepG2 cells by immunocapture; endogenous in cells; host or cells: HepG2 cells; complex isolated by immunocapture with anti-ATP synthase antibody 12F4AD8AF8 (#ab109867, Abcam)
Description: The mature human IF1 protein (SEQ ID NO: 5) was chemically synthesized by GenScript (Piscataway, N.J., USA) at >80% purity. The peptides derived from the mature human IF1 sequence (IF1-1-60, IF1-10-56, IF1-10-47) were produced by BachemAG (Bubendorf, Switzerland) with >90% purity.
Human F1Fo-ATPase was purified from HepG2 cells by immunocapture using mouse monoclonal anti-ATP synthase antibody (12F4AD8AF8, #ab109867, Abcam) according to manufacturer's instructions.
Measurement of F1-ATPase activity was assayed as previously described. Briefly, 10 μg of F1Fo-ATPase was prepared into 50 μL of activity assay buffer (10 mM HEPES, 150 mM NaCl, 5 mM KCl, 5 mM MgCl2, 0.5 mM phosphoenolpyruvate, 250 μM NADH, 100 μM ATP, 20 U lactate dehydrogenase, 120 U pyruvate kinase). The mixture was incubated at 37° C. for 30 min. Then the F1-ATPase activity was measured in a 96-well microplate by adding 5 μL of the mixture (1 μg of F1Fo-ATPase per point) per well to 200 μL of activity assay buffer at 37° C., and by adding 5 μL of buffer with or without peptide (1 μM each). The reduction in the absorbance of NADH was measured at 340 nm for 5 min with a Varioskan™ Flash Multimode Reader (Thermo Fisher Scientific). A slope was calculated for each well and the results expressed as a percentage of the control slope.

[2] = Stability in plasma and serum (LC-HRMS); format: in vitro ADME, human and mouse; conditions: 37° C.
Procedure: as §1
A mixed solution of peptides of formula (I) and (II) was constituted and serially diluted in PBS to obtain seven standard solutions, ranging from 200 μg/mL to 0.2 μg/mL. In parallel, a mixed solution of labelled peptides of Formula (I) and (II) (Thermo Scientific, Biopolymers Darmstadt, Germany) was prepared in PBS at 100 μg/mL. The mixed solution of labelled peptides (25 μL) was added to 25 μL of standard solutions as well as to PBS, plasma and serum samples. Acetonitrile (150 μL) was added to each sample to precipitate plasma/serum proteins. After centrifugation (10,000×g, 4° C., 10 min), the clear supernatants (150 μL) were dried under a gentle stream of nitrogen (45° C.), reconstituted with 10% acetonitrile containing 0.1% formic acid (100 μL), and injected into the liquid chromatography-high-resolution mass spectrometry (LC-HRMS) system. LC-HRMS analyses were performed on an H-Class UPLC system (Waters Corporation, Milford, Mass., USA) by injection of 10 μL of samples onto an Acquity® Peptide CSH C18 column (2.1 mm×150 mm, 1.7 μm; Waters Corporation) held at 60° C. The mobile phase was composed of 5% acetonitrile as solvent A and 100% acetonitrile as solvent B, each containing 0.1% formic acid. The elution was carried out using a gradient of solvent B in solvent A over 20 min at a constant flow rate of 250 μL/min. […] HRMS detection was performed by a Synapt G2 HRMS Q-TOF mass spectrometer equipped with a Z-Spray interface for electrospray ionization (Waters Corporation). The resolution mode was applied in a mass-to-charge (m/z) ratio ranging from 200 to 4,000 at a mass resolution of 25,000 Full Width Half Maximum in the positive ionization mode. Ionization parameters were as follow: capillary voltage of 3 kV, cone voltage of 30 V, desolvatation gas flow of 900 L/hr, source temperature of 120° C., desolvatation temperature of 450° C., Nitrogen as desolvatation gas. Data were collected in the continuum mode at a rate of four spectra per second. […] Peptides were analyzed according to their major exact m/z (i 5 ppm, Table 1) and each peptide signal was normalized with that of its labelled internal standard. Peptide concentrations were calculated using calibration curves plotted from standard solutions (linear regression, 1/x weighted, origin excluded).

HepG2 cells = assay: HDL endocytosis assay in hepatocytes; format: cell-based, human; conditions: 1 μM; HDL-Alexa568 50 μg/mL, 25 min; abolished by IF1 1 μM
Procedure: HepG2 cells were seeded on 96-well plates at 50,000 cells/well. HDL3 (d 1.12-1.21) were isolated from plasma of healthy human donors and referred to as HDL. HDL was fluorescently labeled with AlexaFluor®568 dye (A10238, Thermofisher Scientific) according the instructions of manufacturer. 1 h30 before the assay, the cells were serum starved for 1 h30 in order to stabilize nucleotide secretion. Cells were incubated with inhibitors (H49K, 1 μM) for 10 min before treatment with the different peptides (1 μM) or apoA-I (10 μg/ml) purified from human plasma. 5 min after peptide treatment, endocytosis was initiated by 50 μg/mL of AlexaFluor568®-labelled HDL. The same experiment was performed with a […] excess of unlabelled HDL (2.5 mg/mL) to determine the nonspecific fluorescence signal. After 25 min at 37° C., cells were then washed in serum-free DMEM and extracellular membrane-bound HDL was disassociated by incubating cells at 4° C. in serum-free DMEM for 90 min. Following washes, cells were lysate in NaOH 0.1M SDS 1% during 2 h, lysates were transferred in a black 96-wells plate and fluorescence was recorded at 568 nm (Varioscan flash). Fluorescence for each condition was substrate with the value obtained in unlabelled HDL condition, and results were expressed as the fold change as compared with the basal condition (untreated cells).

[3] = EDTA plasma, read-out: recovery of the peptide in plasma
[4] = serum, read-out: recovery of the peptide in serum

CCCCCCCCCCCCCCCC(=O)NCCCC[C@H](NC(=O)[C@H](CCC(=O)O)NC(=O)[C@H](CCCNC(=N)N)NC(=O)[C@H](CO)NC(=O)[C@H](CCC(N)=O)NC(=O)[C@H](C)NC(=O)[C@H](CCCNC(=N)N)NC(=O)[C@H](Cc1ccccc1)NC(=O)[C@H](Cc1ccc(O)cc1)NC(=O)[C@H](CCCNC(=N)N)NC(=O)[C@H](CCC(=O)O)NC(=O)[C@H](CCC(=O)O)NC(=O)[C@H](CCC(=O)O)NC(=O)[C@H](C)NC(=O)[C@H](CCC(N)=O)NC(=O)[C@H](CCC(=O)O)NC(=O)[C@H](CCCNC(=N)N)NC(=O)[C@H](CCCCN)NC(=O)CNC(=O)[C@H](Cc1ccccc1)NC(=O)[C@H](C)NC(=O)CNC(=O)CNC(=O)[C@H](C)NC(=O)[C@H](CCC(=O)O)NC(=O)[C@H](CCCNC(=N)N)NC(=O)[C@@H](NC(=O)[C@H](CO)NC(=O)CNC(=O)[C@H](C)NC(=O)CNC(=O)[C@H](CCCNC(=N)N)NC(C)=O)[C@@H](C)CC)C(N)=O [peptide of formula (II), CH3CO-[SEQ ID NO: 1]-K-[palmitoyl]-NH2] (Ac-RGAGSIREAGGAFGKREQAEEERYFRAQSREK(Palmitoyl)-NH2)
stability in PBS [1]: stable | stimulation of F1-ATPase activity (human F1Fo-ATPase): 43% | recovery at 24 h, 200 μg/mL [2, 3]: 50% | recovery at 24 h, 200 μg/mL [2, 4]: 100% | effect on HDL endocytosis (HepG2 cells): stimulated

Ac-RGAGSIREAGGAFGKREQAEEERYFRAQSRE-NH2 [peptide of formula (I), CH3CO-[SEQ ID NO: 1]-NH2]
stability in PBS [1]: stable | stimulation of F1-ATPase activity (human F1Fo-ATPase): 36% | recovery at 24 h, 200 μg/mL [2, 3]: 10% | recovery at 24 h, 200 μg/mL [2, 4]: 30% | effect on HDL endocytosis (HepG2 cells): stimulated
